Key:
Histone deacetylase 1 = Histone deacetylase 1 (Homo sapiens, UniProt Q13547); assay: Inhibition of HDAC1 in human HeLa-S3 cell lysates preincubated for 15 mins followed by HDAC-Glo substrate addition measured after 30 to 40 mins by fluorimetric method
Histone deacetylase 6 = biological target: T1, Histone deacetylase 6 (Homo sapiens, UniProt Q9UBN7); assay: Inhibition of HDAC6 in human HeLa-S3 cell lysates preincubated for 15 mins followed by HDAC-Glo substrate addition measured after 30 to 40 mins by fluorimetric method
T1 sequence (Q9UBN7 whole entry): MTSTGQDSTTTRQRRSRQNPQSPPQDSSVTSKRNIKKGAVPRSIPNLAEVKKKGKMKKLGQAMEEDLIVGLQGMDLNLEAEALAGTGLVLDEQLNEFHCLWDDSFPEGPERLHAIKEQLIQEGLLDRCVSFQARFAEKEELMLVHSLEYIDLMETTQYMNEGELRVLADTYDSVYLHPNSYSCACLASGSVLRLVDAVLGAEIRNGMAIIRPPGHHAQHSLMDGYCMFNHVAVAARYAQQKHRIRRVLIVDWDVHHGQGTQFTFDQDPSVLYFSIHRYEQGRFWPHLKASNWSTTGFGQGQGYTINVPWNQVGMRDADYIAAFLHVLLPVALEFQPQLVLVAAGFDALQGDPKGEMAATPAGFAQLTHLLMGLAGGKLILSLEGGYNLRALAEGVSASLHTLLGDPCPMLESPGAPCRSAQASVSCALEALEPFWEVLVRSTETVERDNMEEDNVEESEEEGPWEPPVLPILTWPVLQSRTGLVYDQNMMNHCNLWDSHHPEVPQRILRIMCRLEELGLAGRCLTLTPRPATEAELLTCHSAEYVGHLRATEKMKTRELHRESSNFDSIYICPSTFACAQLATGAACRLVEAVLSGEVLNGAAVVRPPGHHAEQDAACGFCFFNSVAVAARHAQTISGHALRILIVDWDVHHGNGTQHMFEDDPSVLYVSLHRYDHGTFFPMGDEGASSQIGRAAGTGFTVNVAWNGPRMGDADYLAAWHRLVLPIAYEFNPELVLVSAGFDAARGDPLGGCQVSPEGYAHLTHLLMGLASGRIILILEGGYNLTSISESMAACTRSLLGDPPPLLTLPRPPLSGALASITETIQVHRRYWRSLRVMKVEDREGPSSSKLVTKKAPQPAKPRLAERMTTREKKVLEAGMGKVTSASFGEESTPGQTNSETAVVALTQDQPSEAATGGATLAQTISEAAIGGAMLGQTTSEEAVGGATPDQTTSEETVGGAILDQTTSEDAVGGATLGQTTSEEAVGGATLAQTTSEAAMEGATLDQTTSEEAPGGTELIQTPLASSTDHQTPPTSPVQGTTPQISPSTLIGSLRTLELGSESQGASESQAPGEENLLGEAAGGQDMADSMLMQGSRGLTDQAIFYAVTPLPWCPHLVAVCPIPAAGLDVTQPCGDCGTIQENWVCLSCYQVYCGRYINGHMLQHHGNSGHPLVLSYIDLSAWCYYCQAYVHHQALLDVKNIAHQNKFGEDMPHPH

Histone deacetylase 3 = Histone deacetylase 3 (Homo sapiens, UniProt O15379); assay: Inhibition of HDAC3 in human HeLa-S3 cell lysates preincubated for 15 mins followed by HDAC-Glo substrate addition measured after 30 to 40 mins by fluorimetric method
Histone deacetylase 8 = biological target: T2, Histone deacetylase 8 (Homo sapiens, UniProt Q9BY41); assay: Inhibition of human recombinant full-length C-terminal His-tagged HDAC8 expressed in baculovirus infected Sf9 insect cell preincubated for 15 mins followed by HDAC-Glo substrate addition measured after 30 mins by fluorimetric method
T2 sequence (Q9BY41 whole entry): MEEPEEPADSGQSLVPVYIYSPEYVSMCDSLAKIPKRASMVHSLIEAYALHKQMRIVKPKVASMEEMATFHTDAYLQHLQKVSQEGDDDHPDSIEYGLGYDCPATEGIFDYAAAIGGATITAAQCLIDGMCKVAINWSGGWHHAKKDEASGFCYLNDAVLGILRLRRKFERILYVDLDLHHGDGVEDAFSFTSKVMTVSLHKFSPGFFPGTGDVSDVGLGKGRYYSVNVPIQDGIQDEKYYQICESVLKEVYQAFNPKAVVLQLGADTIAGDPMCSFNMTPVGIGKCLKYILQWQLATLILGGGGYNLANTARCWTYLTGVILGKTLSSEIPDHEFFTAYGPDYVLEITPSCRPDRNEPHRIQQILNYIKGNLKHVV

Sequence of Histone deacetylase 3 (O15379 whole entry): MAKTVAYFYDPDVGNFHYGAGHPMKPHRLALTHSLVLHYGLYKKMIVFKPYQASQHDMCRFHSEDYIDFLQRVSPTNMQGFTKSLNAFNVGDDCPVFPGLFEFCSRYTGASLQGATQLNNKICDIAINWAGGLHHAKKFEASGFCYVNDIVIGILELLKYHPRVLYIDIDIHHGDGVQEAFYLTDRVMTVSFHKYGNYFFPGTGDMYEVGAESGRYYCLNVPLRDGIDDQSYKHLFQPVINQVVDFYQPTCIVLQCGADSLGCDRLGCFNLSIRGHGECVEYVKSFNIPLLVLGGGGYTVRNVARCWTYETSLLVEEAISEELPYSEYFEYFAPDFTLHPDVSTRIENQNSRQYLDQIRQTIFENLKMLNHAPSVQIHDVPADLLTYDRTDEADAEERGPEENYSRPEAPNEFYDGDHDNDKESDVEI
Sequence of Histone deacetylase 1 (Q13547 whole entry): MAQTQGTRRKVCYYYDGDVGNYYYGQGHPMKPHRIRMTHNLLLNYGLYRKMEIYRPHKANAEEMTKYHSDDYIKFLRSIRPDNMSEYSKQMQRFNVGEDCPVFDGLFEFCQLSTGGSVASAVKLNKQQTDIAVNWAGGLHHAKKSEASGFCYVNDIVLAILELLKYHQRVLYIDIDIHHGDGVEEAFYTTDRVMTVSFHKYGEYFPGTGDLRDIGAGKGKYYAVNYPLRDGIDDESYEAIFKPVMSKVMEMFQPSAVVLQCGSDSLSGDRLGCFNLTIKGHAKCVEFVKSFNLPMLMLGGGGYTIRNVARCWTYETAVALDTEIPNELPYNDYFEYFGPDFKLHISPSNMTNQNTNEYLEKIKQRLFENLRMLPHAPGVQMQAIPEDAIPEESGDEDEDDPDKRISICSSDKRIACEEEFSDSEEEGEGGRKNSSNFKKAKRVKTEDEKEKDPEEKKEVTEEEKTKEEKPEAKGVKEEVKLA

IC50 (Histone deacetylase 1): 11 µM
IC50 (Histone deacetylase 6): 0.11 µM
IC50 (Histone deacetylase 3): 23 µM
IC50 (Histone deacetylase 8): 0.29 µM
SMILES: O=C(CCC(CCCC(=O)Nc1ccccc1)c1ccccc1)NO (centres undefined)

Reference: BindingDB's records for doi:10.1016/j.ejmech.2017.10.076 (Wayne State University, 2018)
